Results from ChEMBL document CHEMBL1201862, “PubChem BioAssay data set” (2004).
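Five compound concentrations were applied to cells in 96-well plates for 48 hours; endpoints were derived by simple linear interpolation of the resulting dose-response curve. GI50 marks 50% less growth.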 Calls of active or inactive are those of the source. Rule as the data show it: active = GI50 up to about 1.1 µM and inactive = higher.

Legend:
Test in all cases: NCI tumour cell line growth inhibition, 48 h
[1] = test system: 786-0
[2] = test system: A498
[3] = test system: A549
[4] = test system: ACHN
[5] = test system: CCRF-CEM
[6] = test system: COLO 205
[7] = test system: DLD-1
[8] = test system: DMS-114
[9] = test system: DMS-273
[10] = test system: EKVX
[11] = test system: HCT-116
[12] = test system: HCT-15
[13] = test system: HL-60
[14] = test system: HOP-18
[15] = test system: HOP-92
[16] = test system: HT-29
[17] = test system: IGROV-1
[18] = test system: K562
[19] = test system: KM-20L2
[20] = test system: LOX IMVI
[21] = test system: LXFL 529
[22] = test system: M14
[23] = test system: M19-MEL
[24] = test system: MOLT-4
[25] = test system: NCI-H460
[26] = test system: OVCAR-8
[27] = test system: RPMI-8226
[28] = test system: SF-268
[29] = test system: SF-295
[30] = test system: SF-539
[31] = test system: SK-MEL-28
[32] = test system: SK-MEL-5
[33] = test system: SK-OV-3
[34] = test system: SN12C
[35] = test system: SW-620
[36] = test system: TK-10
[37] = test system: U-251
[38] = test system: UACC-62
[39] = test system: UO-31
[40] = test system: XF498
[41] = test system: HCC 2998
[42] = test system: KM12
[43] = test system: Malme-3M
[44] = test system: NCI-H226
[45] = test system: NCI-H23
[46] = test system: NCI-H522
[47] = test system: OVCAR-3
[48] = test system: OVCAR-4
[49] = test system: RXF 393
[50] = test system: SK-MEL-2
[51] = test system: SNB-19
[52] = test system: SNB-75
[53] = test system: SNB-78
[54] = test system: UACC-257
[55] = test system: BT-549
[56] = test system: DU-145
[57] = test system: HOP-62
[58] = test system: Hs-578T
[59] = test system: MCF7
[60] = test system: MDA-MB-231
[61] = test system: MDA-MB-435
[62] = test system: MDA-N
[63] = test system: NCI/ADR-RES
[64] = test system: OVCAR-5
[65] = test system: PC-3
[66] = test system: T47D
[67] = test system: CAKI-1

Measured: GI50

COc1ccc(/C=C/C(=O)c2c(-c3ccccc3)nn(C)c(=O)c2N2CCCC2)cc1
inactive: [1] 82 µM | [2] > 100 µM | [3] > 100 µM | [4] > 100 µM | [5] > 100 µM | [6] > 100 µM | [7] > 100 µM | [8] > 100 µM | [9] > 100 µM | [10] > 100 µM | [11] 87.9 µM | [13] 20.9 µM | [14] > 100 µM | [15] 3.69 µM | [16] > 100 µM | [17] > 100 µM | [18] 57.3 µM | [19] > 100 µM | [20] > 100 µM | [21] > 100 µM | [22] > 100 µM | [23] > 100 µM | [24] 36.9 µM | [25] > 100 µM | [26] > 100 µM | [27] > 100 µM | [28] 87.3 µM | [29] 70.5 µM | [30] 69.2 µM | [31] > 100 µM | [32] > 100 µM | [33] > 100 µM | [34] > 100 µM | [35] > 100 µM | [36] > 100 µM | [37] > 100 µM | [38] > 100 µM | [39] > 100 µM | [40] > 100 µM
> 100 µM: [12]

O=c1c2ccccc2[nH]c2cc(O)cc(O)c12
active: [17] < 0.01 µM
55.6 µM: [12]
inactive: [3] 92.5 µM | [4] 26.4 µM | [5] 49 µM | [9] 35.1 µM | [41] 50.2 µM | [11] 55.6 µM | [13] > 100 µM | [14] > 100 µM | [16] 40.2 µM | [18] 66.4 µM | [42] 34.9 µM | [20] 32.1 µM | [21] 39.3 µM | [22] 91 µM | [23] 39.1 µM | [24] 34.2 µM | [43] 56.8 µM | [44] 27.2 µM | [45] 22.9 µM | [25] 32.8 µM | [46] 16.9 µM | [47] 53.1 µM | [48] > 100 µM | [26] 30.6 µM | [49] > 100 µM | [28] 93.8 µM | [29] 42.9 µM | [30] 41.5 µM | [31] > 100 µM | [50] 81.7 µM | [32] 19.1 µM | [33] 85.5 µM | [34] 61.4 µM | [51] > 100 µM | [52] 47.9 µM | [53] > 100 µM | [36] > 100 µM | [37] 79.3 µM | [54] 45 µM | [38] > 100 µM | [39] 21 µM | [40] 27.9 µM

CN(C)CCN1C(=O)c2cccc3cc(N)cc(c23)C1=O [AMONAFIDE]
inactive: [1] 2.2 µM | [2] 3.58 µM | [55] 4.01 µM | [5] 1.91 µM | [6] 1.55 µM | [7] 5.38 µM | [8] 4.21 µM | [9] 2.07 µM | [56] 2.94 µM | [10] 5.94 µM | [41] 2.48 µM | [11] 1.87 µM | [13] 2.24 µM | [14] 5.2 µM | [57] 2.43 µM | [15] 3.23 µM | [16] 3.3 µM | [58] 6.21 µM | [17] 3.49 µM | [18] 3.23 µM | [19] 3.99 µM | [42] 4.37 µM | [20] 2.46 µM | [22] 3.72 µM | [23] 4.19 µM | [59] 1.87 µM | [60] 2.46 µM | [61] 3.37 µM | [62] 2.9 µM | [43] 3.31 µM | [44] 2.4 µM | [45] 3.91 µM | [46] 3.71 µM | [63] 3.33 µM | [47] 5.81 µM | [48] 4.71 µM | [64] 4.83 µM | [26] 2.14 µM | [65] 2.01 µM | [27] 2.49 µM | [49] 4.06 µM | [28] 5.46 µM | [29] 3.46 µM | [30] 3.71 µM | [31] 6.84 µM | [50] 2.46 µM | [32] 2.9 µM | [33] 4.42 µM | [34] 3.19 µM | [51] 4.21 µM | [52] 5.33 µM | [35] 1.65 µM | [66] 4.5 µM | [36] 3.89 µM | [37] 3.64 µM | [54] 4.36 µM | [38] 3.38 µM | [39] 4.18 µM
2.6 µM: [12]
active: [4] 0.718 µM | [24] 0.804 µM | [25] 0.767 µM | [40] 0.946 µM

O=[N+]([O-])c1nccn1CC(O)c1ccccc1 (centres undefined)
> 100 µM: [12]
inactive: [1] > 100 µM | [2] > 100 µM | [3] > 100 µM | [4] > 100 µM | [67] > 100 µM | [5] > 100 µM | [6] > 100 µM | [8] > 100 µM | [9] > 100 µM | [10] > 100 µM | [13] > 100 µM | [14] > 100 µM | [57] > 100 µM | [15] > 100 µM | [16] > 100 µM | [17] > 100 µM | [18] > 100 µM | [19] > 100 µM | [42] > 100 µM | [20] > 100 µM | [21] > 100 µM | [22] > 100 µM | [24] > 100 µM | [43] > 100 µM | [44] > 100 µM | [45] > 100 µM | [25] > 100 µM | [46] > 100 µM | [47] > 100 µM | [48] > 100 µM | [64] > 100 µM | [26] > 100 µM | [27] > 100 µM | [49] > 100 µM | [28] > 100 µM | [29] > 100 µM | [30] > 100 µM | [31] > 100 µM | [50] > 100 µM | [32] > 100 µM | [33] > 100 µM | [34] > 100 µM | [51] > 100 µM | [52] > 100 µM | [35] > 100 µM | [36] > 100 µM | [37] > 100 µM | [54] > 100 µM | [38] > 100 µM | [39] > 100 µM | [40] > 100 µM
